Source: patent US20180346731A1, “Formation of Stable Pyranoanthocyanins, and Uses Thereof as Sources of Natural Color” (Ohio State Innovation Foundation, priority 2017, published 2018)

Legend:
Assay type in all cases: physicochemical
[1] = Anthocyanin survival of control treatments at pH 2.5 (uHPLC AUC 500-520 nm); conditions: pH 2.5 acidified water, no pyruvic acid, 25° C., day 31
Protocol: FIG. 10: Pyranoanthocyanin yield for anthocyanins (500 μM) subjected to pyruvic acid treatment (×100 M ratio) and anthocyanin survival of control treatments at pH 2.5 acidified water at day 7, 14, and 31. Yield defined as (AUC500-520 nm of PACN at tn/AUC500-520 nm of ACN @t0)*100. Survival defined as (AUC500-520 nm of ACN at tn/AUC500-520 nm of ACN @ t0)*100. Values shown are means (n=3) and bars represent standard deviation.
A uHPLC system (Shimadzu Nexera-i LC-2040C, Maryland, U.S.) coupled with tandem MS (Shimadzu LCMS-8040, Maryland, U.S.) was used in evaluating initial anthocyanin purity and monitoring changes in anthocyanins with and without pyruvic acid treatment over time. A 0.4 mL/min flow rate was used on a Pinnacle DB (Restek Corporation, Bellefonte, Pa.) C18 Column (1.9 μm particle size, 50×2.1 mm length). The column oven was set at 40° C. The following gradient of solvent A (4.5% formic acid) and B (100% acetonitrile) was used: 0% B for the first minute, ramped to 15% B by 10 min. This method was effective for separation of the formed pyranoanthocyanin from anthocyanin for all isolates except cy3rut which coeluted with the formed pyranoanthocyanin. This was observed through MS-MS data. […]
Quantification of pigments was conducted on day 0, 3, 7, 14, and 31 using a standard curve of cyanidin-3-glucoside (Sigma Aldrich, St. Louis, Mo., U.S.) run under the same conditions used for isolates. Molar absorptivities of anthocyanins and carboxypyranoanthocyanidins have been reported as being relatively similar and were thought to provide a basis of confidence in using AUC500-520 nm as a quantitative measure of pyranoanthocyanin yield.
Prior to dilution, the concentrations of the isolated pigment extracts were determined by the pH differential method for subsequent dilution to known concentrations. The isolates were then diluted to 500 μM (expressed as Cyanidin-3-glucoside equivalents) in pH 2.5 deionized water (previously adjusted with HCl) which contained 0.1% potassium sorbate (w/v) and 0.1% sodium benzoate (w/v) to function as preservative agents during storage. […]

[2] = UV-Vis spectra of anthocyanin isolates treated with pyruvic acid, 31 days storage; conditions: for decrease in maximum absorbance: 500 μM, pyruvic acid ×100 M ratio, pH 2.5, 25° C., after 31 days
Protocol: (§1) Prior to dilution, the concentrations of the isolated pigment extracts were determined by the pH differential method for subsequent dilution to known concentrations. The isolates were then diluted to 500 μM (expressed as Cyanidin-3-glucoside equivalents) in pH 2.5 deionized water (previously adjusted with HCl) which contained 0.1% potassium sorbate (w/v) and 0.1% sodium benzoate (w/v) to function as preservative agents during storage. A pH of 2.5 was selected as a compromise of several variables: the flavylium form was predominant, the effect of pKh was minimized, and it is a relevant pH for wines. It has been reported that the pKh's of cy3 gal, cy3xylgal, and cy3xylglugal ranges from 3.01 to 3.26. Working at pH 2.5 largely avoided the effect of different equilibrium forms while also maintaining a pH that is similar to that of wines where these compounds are commonly formed. Control samples of each isolate were prepared and contained no pyruvic acid. For treatments containing pyruvic acid, a previously diluted pyruvic acid standard (pyruvic acid in the same pH 2.5 water containing preservatives) was added to obtain concentrations 100× the molar ratio of anthocyanins (50 mM of pyruvic acid). All treatments were brought to the same final volume by the addition of more pH 2.5 water. Samples were filtered through a 0.2 μm membrane into 1.5 mL glass HPLC vials. Vials were capped and stored in an incubator in the dark at 25° C. for a 31 day duration (Fisher Scientific, Waltham, Mass., U.S.). All treatments were prepared in triplicate.
Absorbance spectra of anthocyanin isolates subjected to pyruvic acid treatment was collected using a SpectraMax 190 microplate reader (Molecular Devices, Sunnyvale, Calif., U.S.). Sample aliquots (75 μL) were loaded in a 96-well plate (poly-D-lysine coated polystyrene). Samples were evaluated from 380 to 780 nm in 1 nm intervals. The blank consisted of the same acidified pH 2.5 water solution used to dilute pigment samples. Spectra were collected on day 0, 7, 14, and 31. Spectrophotometric data of the samples was used to correlate with pyranoanthocyanins formation.

[3] = Colorimetry (CIEL*c*h*, ΔE2000) of anthocyanin isolates treated with pyruvic acid, 31 days storage; conditions: for ΔL* / Δc*: day 0 to day 31; for total color change (ΔE): day 0 vs day 31, Delta E2000; for increase in hue angle: over 31 days
Protocol: as §1
Colorimetric data of samples was calculated from spectra of samples collected from the plate reader with ColorBySpectra. Absorbance data was obtained and conversion to color values was achieved using the following settings: regular transmission, D65 illuminant, and 10° observer angle. Values reported are in the CIEL*c*h* scale. After storage for 31 days, the mathematical differences in color (ΔE) were calculated according to the CIE-L*a*b* Delta E2000 equation. Colorimetric data of the samples containing pyruvic acid was used to correlate with pyranoanthocyanins formation. Spectral absorbance data of the peaks of the anthocyanins and their respective pyranoanthocyanins were also collected from the PDA during uHPLC analyses and converted to colorimetric data using ColorBySpectra under the settings described above. The spectra was obtained from the time of elution of the target compound and then standardized to an absorbance of 1.0 at λvis-max.

SMILES | decrease in maximum absorbance [2] | total color change (ΔE) [3] | also measured
Oc1cc(O)c2cc(O[C@@H]3OC[C@H](O)[C@H](O)[C@H]3O)c(-c3ccc(O)c(O)c3)[o+]c2c1 [cy3ara, cyanidin-3-arabinoside] | 71% | 16.4 | anthocyanin survival of control treatment [1]: 66%; shift of λvis-max of solution ([2]; pyruvic acid treated, pH 2.5, by day 31): bathochromic shift; ΔL* [3]: 10.2; Δc* [3]: −42.5
OC[C@H]1O[C@@H](Oc2cc3c(O)cc(O)cc3[o+]c2-c2ccc(O)c(O)c2)[C@H](O)[C@@H](O)[C@@H]1O [cy3glu, cyanidin-3-glucoside] |  | 7.2 | anthocyanin survival of control treatment [1]: 49%
OC[C@H]1O[C@@H](OC[C@H]2O[C@@H](Oc3cc4c(O)cc(O)cc4[o+]c3-c3ccc(O)c(O)c3)[C@H](O)[C@@H](O)[C@H]2O)[C@H](O)[C@@H](O)[C@@H]1O [cy3glugal, cyanidin-3-(glucosyl)galactoside] | 26% | 3.6 | ΔL* [3]: 1.8; increase in hue angle [3]: 0.5 °
C[C@@H]1O[C@@H](OC[C@H]2O[C@@H](Oc3cc4c(O)cc(O)cc4[o+]c3-c3ccc(O)c(O)c3)[C@H](O)[C@@H](O)[C@@H]2O)[C@H](O)[C@H](O)[C@H]1O [cy3rut, cyanidin-3-rutinoside] | 30% | 4.9 | Δc* [3]: −9.7; increase in hue angle [3]: 1.1 °
OC[C@H]1O[C@@H](Oc2cc(O)cc3[o+]c(-c4ccc(O)c(O)c4)c(O[C@@H]4O[C@H](CO)[C@@H](O)[C@H](O)[C@H]4O[C@@H]4O[C@H](CO)[C@@H](O)[C@H](O)[C@H]4O)cc23)[C@H](O)[C@@H](O)[C@@H]1O [cy3soph5glu, cyanidin-3-sophoroside-5-glucoside] |  | 9.7 | initial L* ([3]; pH 2.5, day 0): 87.5
OCC1O[C@@H](Oc2cc3c(O)cc(O)cc3[o+]c2-c2ccc(O)c(O)c2)C(O[C@@H]2OC(CO)[C@@H](O)C(O)[C@H]2O)C(O)[C@@H]1O (stereo partly drawn) [cy3soph, cyanidin-3-sophoroside] |  | 9.2 | 
OC[C@H]1O[C@@H](Oc2cc3c(O)cc(O)cc3[o+]c2-c2ccc(O)c(O)c2)[C@H](O[C@@H]2OC[C@@H](O)[C@H](O)[C@H]2O)[C@@H](O)[C@H]1O [cy3xylgal, cyanidin-3-(xylosyl)galactoside] |  | 7.8 | 
OC[C@H]1O[C@@H](OC[C@H]2O[C@@H](Oc3cc4c(O)cc(O)cc4[o+]c3-c3ccc(O)c(O)c3)[C@H](O[C@@H]3OC[C@@H](O)[C@H](O)[C@H]3O)[C@@H](O)[C@H]2O)[C@H](O)[C@@H](O)[C@@H]1O [cy3xylglugal, cyanidin-3-(xylosylglucosyl) galactoside] |  | 8.3 | 
